Laboratory results: PubChem BioAssay (NCI)
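Exposure lasted 48 hours, with cells grown in 96-well plates and compounds tested at five concentrations. TGI: total growth inhibition.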

Tests used:
Experiment in all cases: DTP human tumour cell line panel, 48 h
DU-145 prostate = test system: DU-145 prostate
HS 578T breast = test system: HS 578T breast
EKVX NSCLC = test system: EKVX NSCLC
OVCAR-3 ovarian = test system: OVCAR-3 ovarian
HCT-116 colon = test system: HCT-116 colon
NCI-H522 lung = test system: NCI-H522 lung
SR leukemia = test system: SR leukemia
OVCAR-5 ovarian = test system: OVCAR-5 ovarian
MCF7 breast = test system: MCF7 breast
HCC-2998 colon = test system: HCC-2998 colon
U251 CNS = test system: U251 CNS
KM12 colon = test system: KM12 colon

| SMILES | TGI (DU-145 prostate) [µM] | TGI (HS 578T breast) [µM] | TGI (EKVX NSCLC) [µM] | TGI (OVCAR-3 ovarian) [µM] | TGI (HCT-116 colon) [µM] | TGI (NCI-H522 lung) [µM] | TGI (SR leukemia) [µM] | TGI (OVCAR-5 ovarian) [µM] | TGI (MCF7 breast) [µM] | TGI (HCC-2998 colon) [µM] | TGI (U251 CNS) [µM] | TGI (KM12 colon) [µM] |
| --- | --- | --- | --- | --- | --- | --- | --- | --- | --- | --- | --- | --- |
| COC(=O)/C(C#N)=C(/NCc1ccccc1)Nc1ccccc1 | > 100 | > 100 | > 100 | > 100 | > 100 | > 100 | > 100 | > 100 | > 100 | > 100 | > 100 | – |
| COCCNC1CCC(=O)c2[nH]c3ccccc3c21 (stereo not drawn) | > 100 | > 100 | > 100 | > 100 | > 100 | > 100 | > 100 | > 100 | > 100 | > 100 | > 100 | > 100 |
| C=C1C(=O)OC2/C=C(\C)CC/C=C(\C)CC(OC(=O)/C(=C/CO)CO)[C@@H]12 (stereo partly drawn) | 42.3 | 63.4 | 29 | 18.4 | 10.7 | 3.5 | > 23.8 | 31.3 | 22.9 | 33.5 | 4.71 | 35.1 |
| CCN(CC)c1ccc2cc(-c3csc(C)n3)c(=O)oc2c1 | > 100 | 67.5 | > 100 | – | > 100 | – | > 100 | > 100 | > 100 | > 100 | > 100 | > 100 |
| CC(C)(C)OC(=O)NC(Cc1ccc(OCc2ccccc2)cn1)C(N)=O (stereo not drawn) | > 100 | > 100 | > 100 | > 100 | > 100 | > 100 | > 100 | > 100 | > 100 | > 100 | > 100 | > 100 |
| COc1ccc2c(c1)C1c3ccccc3CCN1CCC2 (stereo not drawn) | > 100 | > 100 | > 100 | > 100 | > 100 | 98.1 | > 100 | > 100 | > 100 | 63.5 | > 100 | > 100 |
| N/N=C(/CC(O)(C(F)(F)F)C(F)(F)F)c1ccccc1 | > 10 | > 10 | > 10 | > 10 | > 10 | > 10 | > 10 | > 10 | > 10 | > 10 | > 10 | > 10 |
| CCC1(CC)C(=O)NN(C(=O)c2ccc(Cl)cc2)C1=O | > 100 | > 100 | > 100 | > 100 | > 100 | > 100 | > 100 | > 100 | > 100 | > 100 | > 100 | > 100 |
| Oc1ccccc1-c1n[nH]c(-c2ccccc2O)n1 | > 100 | > 100 | > 34 | – | > 100 | – | > 100 | > 100 | > 100 | > 96.7 | > 100 | > 100 |
| CC1=NN(C(=O)CC(=O)Nc2ccc(Cl)cc2)C(=O)C1N=Nc1ccc(S(=O)(=O)c2ccc(N=NC3C(=O)N(C(=O)CC(=O)Nc4ccc(Cl)cc4)N=C3C)cc2)cc1 (stereo not drawn) | > 100 | > 100 | > 100 | > 100 | > 100 | > 100 | > 100 | > 100 | > 100 | > 100 | 59.6 | > 100 |
| CNc1cccc2c1C(C)C[C@]1(C)C(=O)Nc3ccccc3[C@H]21 (stereo partly drawn) | > 100 | 53.6 | > 100 | 34.6 | 34.8 | 89 | 43.3 | > 100 | 47.4 | > 100 | – | 87.1 |
| N#CCCN(CCCN(C(=O)Nc1ccc(NC(=O)N(CCCN(CCC#N)C(N)=O)c2ccccc2)cc1)c1ccccc1)C(N)=O | > 100 | > 100 | > 100 | > 100 | > 100 | > 100 | > 100 | > 100 | > 100 | > 100 | > 100 | > 100 |
| CC(C(=O)O)C1Nc2ccccc2NC1=O (stereo not drawn) | > 100 | > 100 | > 100 | > 100 | > 100 | – | > 100 | > 100 | > 100 | > 100 | > 100 | > 100 |
| N#CCN1CCN(CC#N)CCN(CC#N)CCN(CC#N)CC1 | > 100 | > 100 | – | > 100 | > 100 | > 100 | > 100 | > 100 | > 100 | > 100 | > 100 | > 100 |
| Nc1ncc(N)c(NCC2(CO)CC(CCc3ccccc3)C2)n1 (stereo not drawn) | 24.2 | 36.1 | 22.7 | 13.3 | 20.1 | 3.58 | 13.2 | 28.5 | 15.9 | 23.7 | 19.6 | 23 |
| CC(C)(C)OC(=O)NCC(=O)N(CCc1ccc(Cl)c(Cl)c1)CCN1CCCC1 | 32.3 | 46.5 | 48.1 | 32.2 | 27.9 | 29.4 | 32.2 | 38.7 | 31.8 | 16.2 | 28.7 | 32.6 |
| CNC(=O)OCc1nc(N=[N+]=[N-])n(C)c1COC(=O)NC | > 100 | > 100 | > 100 | > 100 | > 100 | 40.7 | 86 | > 100 | > 100 | > 100 | > 100 | > 100 |
| COc1ccc(C(c2cc(OC)c(OC)c(OC)c2)N2C(=O)CCC2C(=O)O)cc1 (stereo not drawn) | > 100 | > 100 | > 100 | > 100 | > 100 | > 100 | > 100 | > 100 | > 100 | > 100 | > 100 | > 100 |
